Measurements from patent US10988474B2, “Compounds acting at multiple prostaglandin receptors giving a general anti-inflammatory response” (ALLERGAN, INC., priority 2011, dated 2021).

What was measured:
Format in all cases: cell-based
[1] = target: T1, human prostanoid FP receptor (Homo sapiens, UniProt P43088); assay: FLIPR Ca2+ signaling PG antagonist assay, FP stable cell line; settings: HEK-293 EBNA cells, human recombinant FP, no exogenous G-protein; standard agonist 17-phenyl-PGF2α
T1 construct: expressed in transfected cells
T1 sequence (P43088 whole entry): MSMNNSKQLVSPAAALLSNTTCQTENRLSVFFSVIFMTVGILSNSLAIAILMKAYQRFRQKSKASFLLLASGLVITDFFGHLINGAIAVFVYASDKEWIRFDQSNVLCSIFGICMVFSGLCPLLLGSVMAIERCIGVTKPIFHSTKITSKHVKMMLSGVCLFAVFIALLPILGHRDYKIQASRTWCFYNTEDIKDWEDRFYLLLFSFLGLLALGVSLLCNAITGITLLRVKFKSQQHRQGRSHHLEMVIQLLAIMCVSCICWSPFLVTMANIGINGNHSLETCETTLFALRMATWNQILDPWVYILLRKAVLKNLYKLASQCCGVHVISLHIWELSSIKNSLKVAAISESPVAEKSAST
Protocol: (§1) The above compounds were tested for PG antagonist activity as follows using human recombinant prostanoid receptor (DP1, EP1-4, FP, IP and TP) stable cell lines: In order to measure the response of Gs and Gi coupled prostanoid receptors as a Ca^2+ signal, chimeric G protein cDNAs were used. Stable cell lines over-expressing human prostanoid DP1, EP1-4, FP, IP, and TP receptors were established as follows:
(§2) Briefly, human prostanoid DP1, EP2, and EP4 receptor cDNAs were co-transfected with chimeric Gqs cDNA containing a haemagglutanin (HA) epitope; human prostanoid EP3 receptors were co-transfected with chimeric Gqi-HA; human EP1, FP, IP, and TP receptor cDNAs were expressed with no exogenous G-proteins. Gqs and Gqi chimeric cDNAs (Molecular Devices, Sunnyvale, Calif., U.S.A.), as well as cDNAs of prostanoid receptors, were cloned into a pCEP4 vector with a hygromycin B selection marker. Transfection into HEK-293 EBNA (Epstein-Barr virus nuclear antigen) cells was achieved by the FuGENE 6 transfection Reagent (Roche Applied Science, Indianapolis, Ind., USA). Stable transfectants were selected according to hygromycin resistance. Because Gqs and Gqi contained an HA epitope, G-protein expression was detected by Western blotting analysis using anti-mouse HA monoclonal antibody and horseradish peroxidase (HRP)-conjugated secondary antibody, while functional expression of prostanoid receptors was detected by FLIPR screening (Matias et al., 2004). These stable cell lines were validated using previously published antagonists at 10 μM against serial dilutions of standard agonists by FLIPR functional assays for Ca^2+ Signaling (as described below).
(§3) Ca^2+ signaling studies were performed using a FLIPR TETRA system (Molecular Devices, Sunnyvale, Calif., USA) in the 384-format. This is a high-throughput instrument for cell-based assays to monitor Ca^2+ signaling associated with GPCRs and ion channels. Cells were seeded at a density of 5×10^4 cells/well in BioCoat poly-D-lysine coated, black wall, clear bottom 384-well plates (BD Biosciences, Franklin lakes, NJ, USA) and allowed to attach overnight in an incubator at 37° C. The cells were then washed twice with HBSS-HEPES buffer (Hanks' balanced salt solution without bicarbonate and phenol red, 20 mM HEPES, pH 7.4) using an ELx405 Select CW Microplate Washer (BioTek, Winooski, Vt., USA). After 60 min of dye-loading in the dark using the Ca^2+-sensitive dye Fluo-4AM (Invitrogen, Carlsbad, Calif., USA), at a final concentration of 2×10^−6M, the plates were washed 4 times with HBSS-HEPES buffer to remove excess dye and leaving 50 μl of buffer in each well. The plates were then placed in the FLIPR TETRA instrument and allowed to equilibrate at 37° C. Compounds were added in a 25 μl volume to each well to give final concentrations of 0.1 μM, 0.3 μM, 1 μM, 3 μM, 10 μM, and 30 μM; or 0.067 μM, 0.1 μM, 0.2 μM, 0.3 μM, 0.67 μM, and 1 μM for cells over-expressing TP receptors. After 4.5 minutes, a 7-point serial dilution of the standard agonist for the corresponding receptor, in a 25 μl volume was injected at the final concentrations from 10^−11M to 10^−5M in 10-fold serial dilution increments for cells expressing human recombinant DP1, EP1, EP2, EP3, EP4, FP, and IP receptors. The dose range for the standard agonist for human recombinant TP receptors was from 10^−12M to 10^−6M. HBSS-HEPES buffer was used as the negative control for the standard agonists. Cells were excited with LED (light emitting diode) excitation at 470-495 nm and emission was measured through an emission filter at 515-575 nm. Assay plates were read for 3.5 minutes using the FLIPR^TETRA. The peak increase in fluorescence intensity was recorded for each well. On each plate, negative controls, dose response of positive controls, and co-treatments of antagonist-agonist for each dose were in triplicates. Standard agonists were as follows: DP=BW 245C, EP1-EP4=PGE2, FP=17-phenyl-PGF2α, IP=Cicaprost, and TP=U-46619. […]

[2] = target: T2, human prostanoid EP1 receptor (Homo sapiens, UniProt P34995); assay: FLIPR Ca2+ signaling PG antagonist assay, EP1 stable cell line; settings: HEK-293 EBNA cells, human recombinant EP1, no exogenous G-protein; standard agonist PGE2
T2 construct: expressed in transfected cells
T2 sequence (P34995 1-402): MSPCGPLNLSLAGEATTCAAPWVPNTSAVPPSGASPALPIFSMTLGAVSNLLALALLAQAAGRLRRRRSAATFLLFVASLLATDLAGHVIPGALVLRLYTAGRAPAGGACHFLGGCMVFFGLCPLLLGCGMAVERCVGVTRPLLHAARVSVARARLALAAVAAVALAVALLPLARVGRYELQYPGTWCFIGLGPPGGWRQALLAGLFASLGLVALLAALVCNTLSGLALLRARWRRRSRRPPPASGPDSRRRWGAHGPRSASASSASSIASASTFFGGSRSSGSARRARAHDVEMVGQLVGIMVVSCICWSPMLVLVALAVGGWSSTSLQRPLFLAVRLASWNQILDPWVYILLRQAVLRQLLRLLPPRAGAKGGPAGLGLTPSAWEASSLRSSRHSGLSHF
Protocol: as §1, §2, §3

[3] = target: T3, human prostanoid DP1 receptor (Homo sapiens, UniProt Q13258); assay: FLIPR Ca2+ signaling PG antagonist assay, DP1 stable cell line; settings: HEK-293 EBNA cells, human recombinant DP1 with chimeric Gqs, standard agonist BW 245C; for Kb: read-out: DP (Kb, PG antagonist activity)
T3 construct: expressed in transfected cells
T3 sequence (Q13258 1-359): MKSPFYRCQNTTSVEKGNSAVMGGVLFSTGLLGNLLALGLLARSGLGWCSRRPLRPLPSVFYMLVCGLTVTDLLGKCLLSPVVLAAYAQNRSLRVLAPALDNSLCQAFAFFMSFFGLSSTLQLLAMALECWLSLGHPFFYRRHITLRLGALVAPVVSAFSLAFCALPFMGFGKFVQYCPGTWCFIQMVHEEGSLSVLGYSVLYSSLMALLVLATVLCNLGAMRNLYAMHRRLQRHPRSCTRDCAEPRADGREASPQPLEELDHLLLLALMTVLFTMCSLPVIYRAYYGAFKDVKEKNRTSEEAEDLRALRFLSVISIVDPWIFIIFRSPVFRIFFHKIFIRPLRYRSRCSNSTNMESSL
Protocol: as §1, §2, §3

[4] = target: T4, human prostanoid IP receptor (Homo sapiens, UniProt P43119); assay: FLIPR Ca2+ signaling PG antagonist assay, IP stable cell line; settings: HEK-293 EBNA cells, human recombinant IP, no exogenous G-protein; standard agonist Cicaprost
T4 construct: expressed in transfected cells
T4 sequence (P43119 whole entry): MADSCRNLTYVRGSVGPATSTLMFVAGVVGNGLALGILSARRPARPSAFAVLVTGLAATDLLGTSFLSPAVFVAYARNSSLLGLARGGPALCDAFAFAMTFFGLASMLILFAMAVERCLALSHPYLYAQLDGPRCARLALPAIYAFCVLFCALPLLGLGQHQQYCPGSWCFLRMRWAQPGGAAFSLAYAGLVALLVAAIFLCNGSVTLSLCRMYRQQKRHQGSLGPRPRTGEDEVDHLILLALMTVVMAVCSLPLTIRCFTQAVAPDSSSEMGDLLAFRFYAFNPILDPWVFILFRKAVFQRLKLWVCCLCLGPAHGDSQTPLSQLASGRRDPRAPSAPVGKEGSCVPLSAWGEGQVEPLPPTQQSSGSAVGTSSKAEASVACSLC
Protocol: as §1, §2, §3

[5] = target: T5, human prostanoid EP4 receptor (Homo sapiens, UniProt P35408); assay: FLIPR Ca2+ signaling PG antagonist assay, EP4 stable cell line; settings: HEK-293 EBNA cells, human recombinant EP4 with chimeric Gqs; standard agonist PGE2
T5 construct: expressed in transfected cells
T5 sequence (P35408 whole entry): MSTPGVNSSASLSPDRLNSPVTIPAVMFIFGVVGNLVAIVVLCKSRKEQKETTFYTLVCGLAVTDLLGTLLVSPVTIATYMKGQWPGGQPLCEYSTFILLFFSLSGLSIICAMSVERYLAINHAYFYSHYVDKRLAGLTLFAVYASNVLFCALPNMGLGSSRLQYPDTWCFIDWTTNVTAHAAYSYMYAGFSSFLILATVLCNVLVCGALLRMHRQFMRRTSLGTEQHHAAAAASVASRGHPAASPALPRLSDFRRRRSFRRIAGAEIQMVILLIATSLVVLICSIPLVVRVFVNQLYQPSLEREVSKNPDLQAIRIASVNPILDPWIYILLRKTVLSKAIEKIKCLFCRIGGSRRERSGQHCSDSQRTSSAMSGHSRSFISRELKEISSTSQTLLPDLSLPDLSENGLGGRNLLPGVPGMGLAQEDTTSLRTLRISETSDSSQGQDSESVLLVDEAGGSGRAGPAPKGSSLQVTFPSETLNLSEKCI
Protocol: as §1, §2, §3

[6] = target: T6, human prostanoid EP2 receptor (Homo sapiens, UniProt P43116); assay: FLIPR Ca2+ signaling PG antagonist assay, EP2 stable cell line; settings: HEK-293 EBNA cells, human recombinant EP2 with chimeric Gqs; standard agonist PGE2
T6 construct: expressed in transfected cells
T6 sequence (P43116 whole entry): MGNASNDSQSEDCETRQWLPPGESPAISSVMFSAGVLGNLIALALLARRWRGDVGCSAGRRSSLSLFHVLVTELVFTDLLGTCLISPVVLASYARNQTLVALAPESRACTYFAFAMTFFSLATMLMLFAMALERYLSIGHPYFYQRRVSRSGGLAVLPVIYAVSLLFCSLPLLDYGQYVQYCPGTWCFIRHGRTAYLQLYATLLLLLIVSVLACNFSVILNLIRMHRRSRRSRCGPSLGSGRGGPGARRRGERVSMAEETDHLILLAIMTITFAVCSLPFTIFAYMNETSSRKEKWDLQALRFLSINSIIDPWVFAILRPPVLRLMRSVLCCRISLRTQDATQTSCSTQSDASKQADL
Protocol: as §1, §2, §3

Cc1nn(Cc2cc(Cl)ccc2OCC(C)C)c2ncc(C(=O)O)cc12 [Example 61, 1-(5-Chloro-2-Isobutoxy-Benzyl)-3-Methyl-1H-Pyrazolo[3,4-B]Pyridine-5-Carboxylic Acid]
Kb [1]: 1.5 µM | Kb [2]: 0.18 µM | Kb [3]: 0.74 µM | Kb [4]: 1.75 µM | Kb [5]: 0.76 µM | Kb [6]: ≥ 10 µM

CCC(CC)COc1ccc(Br)cc1Cn1c(C)cc2cc(C(=O)O)ccc21 [Example 68, 1-[5-Bromo-2-(2-Ethyl-Butoxy)-Benzyl]-2-Methyl-1H-Indole-5-Carboxylic Acid]
Kb [1]: ≥ 10 µM | Kb [2]: ≥ 10 µM | Kb [3]: ≥ 10 µM | Kb [4]: 6.6 µM | Kb [5]: 9.7 µM | Kb [6]: ≥ 10 µM

CCC(CC)COc1ccc(Cl)cc1Cn1ncc2cc(C(N)=O)ncc21 [Example 62, 1-[5-Chloro-2-(2-Ethyl-Butoxy)-Benzyl]-1H-Pyrazolo[3,4-C]Pyridine-5-Carboxylic Acid Amide]
Kb [1]: ≥ 10 µM | Kb [2]: ≥ 10 µM | Kb [3]: 5.8 µM | Kb [4]: ≥ 10 µM | Kb [5]: ≥ 10 µM | Kb [6]: ≥ 10 µM

O=C(O)c1ccc2c(cnn2Cc2cc(Br)ccc2OCc2ccccc2)c1 [Example 12, 1-(2-Benzyloxy-5-Bromo-Benzyl)-1H-Indazole-5-Carboxylic Acid]
Kb [1]: 0.12 µM | Kb [2]: 0.36 µM | Kb [3]: 1.6 µM | Kb [4]: 5 µM | Kb [5]: 1.15 µM | Kb [6]: 7.9 µM

CC(C)COc1ccc(C(F)(F)F)cc1Cn1ncc2cc(C(=O)O)ccc21 [Example 18]
Kb [1]: 0.02 µM | Kb [2]: 0.04 µM | Kb [3]: 1.4 µM | Kb [4]: 6.5 µM | Kb [5]: 0.06 µM | Kb [6]: ≥ 10 µM

CC(C)COc1ccc(OCC(F)F)cc1Cn1ncc2cc(C(=O)O)ccc21 [Example 55, 1-[5-(2,2-Difluoro-Ethoxy)-2-Isobutoxy-Benzyl]-1H-Indazole-5-Carboxylic Acid]
Kb [1]: 0.04 µM | Kb [2]: 0.04 µM | Kb [3]: 1.2 µM | Kb [4]: ≥ 10 µM | Kb [5]: 2.1 µM | Kb [6]: ≥ 10 µM

CCC(CC)COc1ccc(Br)cc1Cn1cnc2cc(C(=O)O)ccc21 [Example 78, 1-[5-Bromo-2-(2-Ethyl-Butoxy)-Benzyl]-1H-Benzoimidazole-5-Carboxylic Acid]
Kb [1]: 0.8 µM | Kb [2]: 0.145 µM | Kb [3]: 3.8 µM | Kb [4]: 3 µM | Kb [5]: 0.035 µM | Kb [6]: ≥ 10 µM

CC(C)COc1ccc(Br)cc1Cn1ncc2c(C(=O)O)cccc21 [Example 7, 1-(5-Bromo-2-Isobutoxy-Benzyl)-1H-Indazole-4-Carboxylic Acid]
Kb [1]: 0.3 µM | Kb [2]: 0.045 µM | Kb [3]: 1.9 µM | Kb [4]: 1.3 µM | Kb [5]: 1.8 µM | Kb [6]: 4.4 µM

O=C(O)c1ccc2cnn(Cc3cc(Br)ccc3OCC3CCCC3)c2c1 [Example 44, 1-(5-Bromo-2-Cyclopentylmethoxy-Benzyl)-1H-Indazole-6-Carboxylic Acid]
Kb [1]: 1.4 µM | Kb [2]: 0.24 µM | DP (Kb, PG antagonist activity) [3]: PAg | IP (Kb, PG antagonist activity) [4]: PAg | Kb [5]: 3.2 µM | Kb [6]: ≥ 10 µM

CCC(CC)COc1ccc(C(F)(F)F)cc1Cn1nc(C)c2cc(C(=O)O)ccc21 [Example 26, 1-[2-(2-Ethyl-Butoxy)-5-Trifluoromethyl-Benzyl]-3-Methyl-1H-Indazole-5-Carboxylic Acid]
Kb [1]: 0.5 µM | Kb [2]: 0.08 µM | Kb [3]: 1.7 µM | Kb [4]: 1.8 µM | Kb [5]: 0.07 µM | Kb [6]: ≥ 10 µM

O=C(O)c1cccc2c1cnn2Cc1cc(Cl)ccc1OCC1CC1 [Example 34, 1-(5-Chloro-2-Cyclopropylmethoxy-Benzyl)-1H-Indazole-4-Carboxylic Acid]
Kb [1]: 3.2 µM | Kb [2]: 0.07 µM | Kb [3]: 5.4 µM | Kb [4]: ≥ 10 µM | Kb [5]: ≥ 10 µM | Kb [6]: ≥ 10 µM

CCC(CC)COc1ccc(OC(F)(F)F)cc1Cn1cc(C)c2cc(C(=O)O)ccc21 [Example 77, 1-[2-(2-Ethyl-Butoxy)-5-Trifluoromethoxy-Benzyl]-3-Methyl-1H-Indole-5-Carboxylic Acid]
Kb [1]: 9.6 µM | Kb [2]: 0.9 µM | Kb [3]: 3.6 µM | Kb [4]: ≥ 10 µM | Kb [5]: 1.5 µM | Kb [6]: 9.2 µM

CC(C)COc1ccc(S(C)(=O)=O)cc1Cn1ncc2cc(C(=O)O)ccc21 [Example 48, 1-(2-Isobutoxy-5-Methanesulfonyl-Benzyl)-1H-Indazole-5-Carboxylic Acid]
Kb [1]: ≥ 10 µM | Kb [2]: 0.26 µM | Kb [3]: ≥ 10 µM | Kb [4]: ≥ 10 µM | Kb [5]: ≥ 10 µM | Kb [6]: ≥ 10 µM

CC(C)COc1ccc(O)cc1Cn1ncc2cc(C(=O)O)ccc21 [Example 54]
Kb [1]: 1.1 µM | Kb [2]: 1.3 µM | Kb [3]: 9.9 µM | Kb [4]: ≥ 10 µM | Kb [5]: 2.7 µM | Kb [6]: ≥ 10 µM

CCC(CC)COc1ccc(Cl)cc1Cn1nc(C)c2cc(C(=O)O)cnc21 [Example 60, 1-[5-Chloro-2-(2-Ethyl-Butoxy)-Benzyl]-3-Methyl-1H-Pyrazolo[3,4-B]Pyridine-5-Carboxylic Acid]
Kb [1]: 2.5 µM | Kb [2]: 0.41 µM | Kb [3]: 0.58 µM | Kb [4]: 0.63 µM | Kb [5]: 0.15 µM | Kb [6]: 7.5 µM

CCC(CC)COc1ccc(Cl)cc1Cn1ncc2ccc(C(=O)O)cc21 [Example 46, 1-[5-Chloro-2-(2-Ethyl-Butoxy)-Benzyl]-1H-Indazole-6-Carboxylic Acid]
Kb [1]: ≥ 10 µM | Kb [2]: 7.1 µM | Kb [3]: 2.5 µM | Kb [4]: ≥ 10 µM | Kb [5]: ≥ 10 µM | Kb [6]: ≥ 10 µM
